From patent publication US9261497B2, “Method of treating cancer with modulators of SCFSkp2” (New York University, priority 2012, dated 2016)

What was measured:
ECC-1 cells = assay: ECC-1 cell proliferation (MTS assay); assay type: cell-based, human; conditions: for Increase in nuclear p27 and inhibition of cell proliferation following Skp2 knock-down: ECC-1, Skp2 siRNA, knock-down by 85%; for Inhibition of cell proliferation: ECC-1 transfected with control siRNA (FIG. 14B)
Description: ECC-1 cells in complete media were seeded at 1.2×10^5/well in 12-well plates and after 24 h the cells were transfected with either control siRNA or 10 nM Skp2 siRNA using HiPerfect transfection reagent (Qiagen; Valencia, Calif.) and siRNA to three different sites including a pool of siRNAs as shown in the experiment, as previously described (Huang et al., “Estrogen and Progesterone Regulate p27kip1 Levels via the Ubiquitin-Proteasome System: Pathogenic and Therapeutic Implications for Endometrial Cancer,” PLoS One 7:e46072 (2012), which is hereby incorporated by reference in its entirety). […] To determine the effect of C2 and C20 on cell proliferation after knock-down of Skp2, the cells were seeded in 96-well plates at a density of 1×10^4 in complete media, transfected, synchronized, treated with C2 and C20, and cell proliferation determined, as described above.

Q52L-Cks1 mutant = molecular target: T1, Q52L-Cks1 mutant (Homo sapiens, UniProt P61024+Q13309, Q52L); assay: In vitro ubiquitylation assay with Q52L-Cks1 mutant; assay type: biochemical; conditions: 50 μM compound
T1 construct: made in house; host or cells: cell-free: rabbit reticulocyte lysate (TNT T7 Coupled Reticulocyte Lysate System, Promega) from pcDNA3.1 plasmids
Text: To interrogate the compound-contacting residues on the Skp2-Cks1 interface, mutants of Skp2 and Cks1 were designed based on the in silico dockings. The predicted electrostatic interactions between the positive charge on the NH2 side group in Q52-Cks1 with the COOH-group in C1 and C16 should be lost when mutated to a neutral-charge leucine (FIG. 7B). […] This confirms that the Q52-Cks1 residue is important for only C1 and C16 activity, as predicted by the in silico dockings. […] The Skp2-R294A and the Cks1-R44A/H mutants lacked ubiquitylation activity (FIG. 7C) preventing the interrogation of these residues' contribution to the activity of C2 and C20. […] Thus, the predicted three-dimensional mode of interaction of the compounds with Skp2-Cks1 was validated at a chemical and protein level.
In vitro reconstituted assays were performed as previously described (Dorrello et al., “S6K1- and betaTRCP-mediated Degradation of PDCD4 Promotes Protein Translation and Cell Growth,” Science 314:467-471 (2006), which is hereby incorporated by reference in their entirety) with the exceptions of the use of (1) unlabeled proteins (wild-type and mutant Skp2 and Cks1, p27, Flag-βTrCP, and HA-PDCD4) generated by in vitro transcription-translation (TNT T7 Coupled Reticulocyte Lysate System, Promega); (2) chain elongation with non-methylated ubiquitin; and (3) immunoblotting to detect poly-ubiquitylation. The following reagents were obtained from Boston Biochem: UBE1, His-UbcH3, His-UbcH5c, Ubiquitin, and Ubiquitin Aldehyde. Additional reagents include CDK2/CyclinE1 (Sigma-Aldrich), S6K (Invitrogen), Okadaic acid (Sigma), and DMSO (Sigma-Aldrich). For ubiquitin charging, UBE1 (100 nM) and His-UbcH3 (10 ng/μl) were incubated with ubiquitin (2.5 μg/μl), ATP (2 mM), and 10 μM […] of inhibitors or Vehicle control for 60 min at 30° C. Reactions were stopped in nondenaturing 2× Sample Buffer, with the addition of 10% Beta-mercaptoethanol as indicated, and analyzed by Western blotting.

MCF-7 = assay: Cell cycle FACS analysis, MCF-7; assay type: cell-based, human
Description: Whole cell extracts were prepared and immunoblotted as previously described Dorrello et al., “S6K1- and betaTRCP-mediated Degradation of PDCD4 Promotes Protein Translation and Cell Growth,” Science 314:467-471 (2006), which is hereby incorporated by reference in its entirety. For knockdown of Skp2 or p27, shRNAs were induced with 2 ng/ml doxycycline for 48 hours, with the last 16 hours co-treated with 0.1% Vehicle or 10 μM inhibitors as indicated. For cycloheximide chase, cells were pretreated 16 h with 0.1% Vehicle or 10 μM inhibitors, followed by 20 ng/ml cycloheximide (Sigma) and whole cell extracts collected for each time point. 20 ng/ml cycloheximide (Sigma) was added to each plate and whole cell extract was collected for each time point. Scanning densitometry was performed on immunoblots using Image J software. […] 1×10^6 cells were fixed in 70% ethanol for 2 h, treated with 200 μg/ml RNase A (Invitrogen) for 30 minutes, and stained with 20 μg/ml Propidium Iodine (Sigma). All samples were assayed in triplicates. Signal was detected using the Becton Dickson LSRII flow cytometer and cell cycle profiles were analyzed with FloJo.

[1] = test system: p27 in 501 Mel, SK-MEL-147, and SK-MEL-173; assay: Immunoblot of steady state protein levels in metastatic melanoma cell lines; assay type: cell-based, human; conditions: 10 μM inhibitor; melanoma cells
Description: 501 Mel cells were also treated with MG-132 (a proteasome inhibitor) to confirm that p27 and p21 induction were responsive to known UPS inhibitors (FIG. 4A, right). […] Thus, treatment of cells with inhibitors targeting the Skp2-Cks1 interface induces protein levels of specific Skp2-Cks1 substrates.
Whole cell extracts were prepared and immunoblotted as previously described Dorrello et al., “S6K1- and betaTRCP-mediated Degradation of PDCD4 Promotes Protein Translation and Cell Growth,” Science 314:467-471 (2006), which is hereby incorporated by reference in its entirety. For knockdown of Skp2 or p27, shRNAs were induced with 2 ng/ml doxycycline for 48 hours, with the last 16 hours co-treated with 0.1% Vehicle or 10 μM inhibitors as indicated. For cycloheximide chase, cells were pretreated 16 h with 0.1% Vehicle or 10 μM inhibitors, followed by 20 ng/ml cycloheximide (Sigma) and whole cell extracts collected for each time point. Scanning densitometry was performed on immunoblots using Image J software. For cell cycle analysis, cells were treated with 0.1% Vehicle or 10 μM inhibitors for 16 h. 1×10^6 cells were fixed in 70% ethanol for 2 h, treated with 200 μg/ml RNase A (Invitrogen) for 30 minutes, and stained with 20 μg/ml Propidium Iodine (Sigma). All samples were assayed in triplicates. Signal was detected using the Becton Dickson LSRII flow cytometer and cell cycle profiles were analyzed with FloJo.

p27 in ECC-1 cells = assay: p27 immunoblot in ECC-1 cells (whole cell lysates, nuclear and cytoplasmic fractions); conditions: ECC-1; for p27 increase over control at optimal concentration: 10 μM (FIG. 11B); for Nuclear p27 increase over the control in presence of E2: 10 μM compound plus 1 nM E2; for Nuclear p27 increase over the control in presence of E2 / Decrease of cytoplasmic p27 levels: 18 h (FIG. 14C); for p27 protein levels over Vehicle control: 10 μM for 18 h, whole cell lysates (FIG. 11A); for Decrease of cytoplasmic p27 levels: 10 μM; for Increase of nuclear p27 compared to Vehicle control: nuclear fraction (FIG. 11C)
Description: The endometrial carcinoma cell line (derived from a well-differentiated endometrioid Type I ECA) ECC-1 cells (ATCC, Manassas, Va.) were plated at a density of 3×10^5/well/6-well plate and grown in DMEM:F12 supplemented with 10% FBS (BioWest, Ocala, Fla.). The cell line was passaged in the laboratory for fewer than 6 months after receipt. […] ECAs were plated at a density of 2.2×10^6 cells/6-well Primaria® plates (BD Biosciences, San Jose, Calif.) in McCoys 5A media without phenol red containing 10% charcoal-stripped FBS, 2 mM L-Glutamine (Invitrogen) and antimycotic antibiotic solution (Mediatech, Hendon, Va.).
For subcellular fractionation, following treatments, cells were separated into nuclear and cytoplasmic fractions using the NE-PER kit (Thermo Scientific), and 10 μg cytoplasmic and nuclear protein fractions were loaded onto SDS-PAGE for immunoblotting. […] The membranes were incubated with peroxidase-conjugated goat anti-rabbit or goat anti-mouse secondary antibodies in TBST (1:2000; Thermo Scientific). […] Protein bands were resolved using the SuperSignal West Dura kit (Thermo Scientific), visualized by exposure to X-ray film (HyBlot; Denville Scientific, Denville, N.J.), and following densitometric scanning (Kodak Logic-100), the protein bands were quantified by normalizing to β-actin and compared to the untreated control, and the values represented by the graphs of relative protein levels compared to actin in each well and shown as % of Vehicle control.

T1 sequence (Q13309 whole entry): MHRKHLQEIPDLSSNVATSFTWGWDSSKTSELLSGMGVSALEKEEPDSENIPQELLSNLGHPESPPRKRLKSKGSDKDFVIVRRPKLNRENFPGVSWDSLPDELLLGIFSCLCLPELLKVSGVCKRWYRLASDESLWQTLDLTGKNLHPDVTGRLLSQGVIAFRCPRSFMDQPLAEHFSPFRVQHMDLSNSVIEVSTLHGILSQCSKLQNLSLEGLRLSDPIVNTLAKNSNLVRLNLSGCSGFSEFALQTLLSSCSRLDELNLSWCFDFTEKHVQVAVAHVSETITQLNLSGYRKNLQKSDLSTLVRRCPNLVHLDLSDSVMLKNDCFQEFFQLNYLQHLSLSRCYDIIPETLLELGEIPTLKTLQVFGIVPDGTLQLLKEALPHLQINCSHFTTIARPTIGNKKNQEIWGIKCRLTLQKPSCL
T1 sequence (P61024 whole entry Q52L): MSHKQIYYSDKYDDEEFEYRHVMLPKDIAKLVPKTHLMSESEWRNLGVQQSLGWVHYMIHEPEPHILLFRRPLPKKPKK
T1 sequence (P63208 whole entry partner): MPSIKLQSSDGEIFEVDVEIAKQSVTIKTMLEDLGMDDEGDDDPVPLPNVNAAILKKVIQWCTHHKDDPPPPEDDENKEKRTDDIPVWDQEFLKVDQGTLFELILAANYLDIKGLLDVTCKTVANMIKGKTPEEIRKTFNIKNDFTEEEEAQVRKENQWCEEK
T1 sequence (Q13616 whole entry partner): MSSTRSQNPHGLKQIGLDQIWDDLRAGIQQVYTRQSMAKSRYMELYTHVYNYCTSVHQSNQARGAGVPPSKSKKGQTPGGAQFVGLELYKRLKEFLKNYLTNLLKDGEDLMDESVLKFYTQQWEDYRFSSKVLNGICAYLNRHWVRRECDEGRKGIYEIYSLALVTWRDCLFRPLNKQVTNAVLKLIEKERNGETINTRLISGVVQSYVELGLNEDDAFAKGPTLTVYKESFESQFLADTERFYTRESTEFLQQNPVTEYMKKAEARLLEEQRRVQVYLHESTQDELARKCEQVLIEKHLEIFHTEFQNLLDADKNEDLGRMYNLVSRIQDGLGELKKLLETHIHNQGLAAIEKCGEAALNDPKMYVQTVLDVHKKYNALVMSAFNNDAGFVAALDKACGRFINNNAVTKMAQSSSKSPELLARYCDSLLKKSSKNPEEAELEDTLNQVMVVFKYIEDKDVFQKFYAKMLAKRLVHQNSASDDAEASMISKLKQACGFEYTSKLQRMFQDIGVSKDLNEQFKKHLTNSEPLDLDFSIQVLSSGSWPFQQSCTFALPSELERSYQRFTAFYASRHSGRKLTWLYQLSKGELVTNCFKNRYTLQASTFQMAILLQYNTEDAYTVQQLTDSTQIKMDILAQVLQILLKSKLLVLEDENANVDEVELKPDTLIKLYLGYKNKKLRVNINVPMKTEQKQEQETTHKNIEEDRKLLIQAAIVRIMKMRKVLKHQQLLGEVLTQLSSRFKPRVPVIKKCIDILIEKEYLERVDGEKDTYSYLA
T1 sequence (P62877 whole entry partner): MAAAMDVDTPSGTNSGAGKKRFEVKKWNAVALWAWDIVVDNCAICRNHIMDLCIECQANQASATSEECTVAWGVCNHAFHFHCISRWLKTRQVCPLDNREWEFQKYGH

O=C(NN=Cc1cc(Br)cc(Br)c1O)C(=Cc1ccccc1O)NC(=O)c1ccccc1 [Compound C20]
Increase in nuclear p27 and inhibition of cell proliferation following Skp2 knock-down (ECC-1 cells): completely abrogated
Inhibition of cell proliferation (ECC-1 cells): 27%
Inhibition of p27 ubiquitylation with Q52L-Cks1 (Q52L-Cks1 mutant): strongly inhibited
Cellular phenotype (MCF-7): no significant cellular phenotype
p27 protein induction [1]: induce p27 protein
Levels of Skp2 (p27 in ECC-1 cells): do not effect the levels of Skp2
p27 increase over control at optimal concentration (p27 in ECC-1 cells): 2.2
Nuclear p27 increase over the control in presence of E2 (p27 in ECC-1 cells): ~2 fold
p27 protein levels over Vehicle control (p27 in ECC-1 cells): increase p27 protein levels
Decrease of cytoplasmic p27 levels (p27 in ECC-1 cells): approximately 33%
Increase of nuclear p27 compared to Vehicle control (p27 in ECC-1 cells; 18 h): 2.2 fold

O=C(O)COc1ccc(C=C2SC(=O)N(CC(=O)c3ccc(Cl)cc3)C2=O)cc1 [Compound C16]
Inhibition of p27 ubiquitylation with Q52L-Cks1 (Q52L-Cks1 mutant): inactive
Cellular phenotype (MCF-7): no significant cellular phenotype
p27 protein induction [1]: induce p27 protein
p27 protein levels over Vehicle control (p27 in ECC-1 cells): increase p27 protein levels
Increase of cytoplasm p27 (p27 in ECC-1 cells; 18 h, cytoplasmic fraction (FIG. 11C)): 2.7 fold
Increase of nuclear p27 compared to Vehicle control (p27 in ECC-1 cells; 18 h): 2.2 fold

COC(=O)C1=C(C)N(c2ccc(Br)cc2)C(=O)C1=Cc1ccccc1O [Compound C2]
Increase in nuclear p27 and inhibition of cell proliferation following Skp2 knock-down (ECC-1 cells): completely abrogated
Inhibition of cell proliferation (ECC-1 cells): 29%
Inhibition of p27 ubiquitylation with Q52L-Cks1 (Q52L-Cks1 mutant): strongly inhibited
Cellular phenotype (MCF-7): no significant cellular phenotype
p27 protein induction [1]: induce p27 protein
Levels of Skp2 (p27 in ECC-1 cells): do not effect the levels of Skp2
p27 increase over control at optimal concentration (p27 in ECC-1 cells): 2.3
Nuclear p27 increase over the control in presence of E2 (p27 in ECC-1 cells): ~2 fold
p27 protein levels over Vehicle control (p27 in ECC-1 cells): increase p27 protein levels
Decrease of cytoplasmic p27 levels (p27 in ECC-1 cells): approximately 33%
Increase of nuclear p27 compared to Vehicle control (p27 in ECC-1 cells; 18 h): 1.8 fold
Concentration inducing p27 to the same level as the proteasome inhibitor (p27 in ECC-1 cells; 24 hours, compared to 1 μM Lactacystin): ≤ 0.1 µM
Cytoplasm p27, time course (p27 in ECC-1 cells; by 18 h (FIG. 15A)): half
Nuclear p27, time course (p27 in ECC-1 cells; by 18 h (FIG. 15A)): doubled

O=C(O)COc1ccc(Br)cc1C=C1SC(=S)N(Cc2cccnc2)C1=O [Compound C1]
Inhibition of p27 ubiquitylation with Q52L-Cks1 (Q52L-Cks1 mutant): inactive
Increase in G2-M phase (MCF-7; 5 μM C1 for 16 hours): 43%
Reduction in G1 phase (MCF-7; 5 μM C1 for 16 hours): 35%
p27 protein induction [1]: induce p27 protein
